Laboratory results from patent US20130196984A1, “3-AMINO-5-PHENYL-56-DIHYDRO-2H-[1,4]OXAZINES” (Siena Biotech S.p.A., priority 2009, published 2013).
pIC50, pKd: −log10 of the molar value. Where a name gives a salt, the structure may show the parent alone.

Experiments:
[1] = target: T1, BACE1 (Homo sapiens, UniProt P56817); test: Cellular Abeta-lowering assay; format: cell-based; set-up: endogenous in cells; host or cells: HEK293 stably transfected with human APP695 wt; conditions: HEK293 cells stably transfected with human APP wt (APP695), Aβ40 ELISA of supernatant after 18-20 hrs
[2] = target: T1, BACE1; test: Assay A: binding studies using SPR based methods, immobilised BACE1; set-up: 6his-tagged full length BACE 1 expressed in SF9 cells; 6His; made in house; host or cells: SF9 insect cells; conditions: CM5 chip, immobilised 6his-tagged full length BACE 1, acetate buffer pH 4.6, 4% DMSO;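 further: KD from a 1:1 kinetic fit (koff/kon) of real-time association and dissociation curves, or for fast binders from end-of-association equilibrium responses plotted against log concentration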
[3] = target: T2, BACE2 (Homo sapiens, UniProt Q9Y5Z0); test: Assay A: binding studies using SPR based methods, immobilised BACE2; conditions: CM5 chip, immobilised BACE2 enzyme ectodomain, acetate buffer pH 4.6, 4% DMSO
T2 construct: BACE2 enzyme ectodomain (derived from plasmid “pET17b-T7-hu proBACE2”); T7 (N); made in house
T2 sequence (Q9Y5Z0 63-473 limits assumed): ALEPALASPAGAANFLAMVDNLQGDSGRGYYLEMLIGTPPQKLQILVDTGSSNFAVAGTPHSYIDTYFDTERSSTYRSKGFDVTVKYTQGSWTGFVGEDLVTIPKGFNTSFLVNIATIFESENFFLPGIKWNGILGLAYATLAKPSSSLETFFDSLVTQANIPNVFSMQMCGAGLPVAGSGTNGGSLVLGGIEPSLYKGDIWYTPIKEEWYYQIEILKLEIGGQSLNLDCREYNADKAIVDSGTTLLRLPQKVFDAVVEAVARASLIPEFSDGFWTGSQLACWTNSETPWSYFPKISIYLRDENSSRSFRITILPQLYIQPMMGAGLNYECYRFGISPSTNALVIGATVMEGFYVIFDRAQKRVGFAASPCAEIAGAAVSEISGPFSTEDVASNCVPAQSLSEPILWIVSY

[4] = target: T3, BACE2 (Rattus norvegicus, UniProt Q6IE75); test: Assay for BACE inhibition by measuring cellular TMEM27 cleavage; format: cell-based; conditions: INS-TMEM27 (INS1e-derived) cells, ELISA of shed human TMEM27 in supernatant;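 further: inhibitor added 2 h before doxycycline-induced hTMEM27 expression, supernatant collected after further 46 h, endogenous BACE2 activity read as reduced TMEM27 shedding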
T3 construct: endogenous cellular BACE2 in the Ins1e rat cell line; endogenous in cells; host or cells: INS-TMEM27 (INS1e-derived rat cell line with doxycycline-inducible full-length hTMEM27)
T3 sequence (Q6IE75 63-514): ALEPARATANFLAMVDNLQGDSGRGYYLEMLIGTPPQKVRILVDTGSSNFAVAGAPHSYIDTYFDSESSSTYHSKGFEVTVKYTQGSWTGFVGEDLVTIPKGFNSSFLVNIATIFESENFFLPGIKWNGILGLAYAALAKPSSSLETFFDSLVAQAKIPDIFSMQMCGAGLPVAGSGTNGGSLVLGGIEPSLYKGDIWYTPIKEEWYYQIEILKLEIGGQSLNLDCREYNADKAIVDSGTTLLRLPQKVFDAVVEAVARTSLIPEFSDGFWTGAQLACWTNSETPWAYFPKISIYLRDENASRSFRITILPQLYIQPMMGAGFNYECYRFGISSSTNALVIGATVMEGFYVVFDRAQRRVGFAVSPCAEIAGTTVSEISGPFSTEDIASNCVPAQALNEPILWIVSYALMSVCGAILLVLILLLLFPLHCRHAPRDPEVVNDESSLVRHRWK

T1 sequence (P56817 46-501): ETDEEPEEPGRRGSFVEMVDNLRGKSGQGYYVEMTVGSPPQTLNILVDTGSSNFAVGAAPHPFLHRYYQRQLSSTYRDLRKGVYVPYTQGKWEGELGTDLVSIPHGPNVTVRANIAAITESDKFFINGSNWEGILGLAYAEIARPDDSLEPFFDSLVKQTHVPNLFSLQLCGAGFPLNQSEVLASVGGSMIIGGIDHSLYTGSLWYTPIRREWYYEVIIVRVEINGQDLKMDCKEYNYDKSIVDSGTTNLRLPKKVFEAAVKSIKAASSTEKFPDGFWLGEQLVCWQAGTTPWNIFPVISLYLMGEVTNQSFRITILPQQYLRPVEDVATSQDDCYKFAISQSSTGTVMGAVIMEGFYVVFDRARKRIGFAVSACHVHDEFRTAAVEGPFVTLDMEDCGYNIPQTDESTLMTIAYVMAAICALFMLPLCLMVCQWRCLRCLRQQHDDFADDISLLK

pIC50 [1]	pKd [2]	pKd [3]	pIC50 [4]	SMILES
6.40	5.65	5.97	5.96	CC(C)(F)C(=O)Nc1ccc(F)c([C@]2(C)COCC(N)=N2)c1 [Example 92, N-[3-((R)-5-amino-3-methyl-3,6-dihydro-2H-[1,4]oxazin-3-yl)-4-fluoro-phenyl]-2-fluoro-2-methyl-propionamide formate]
6.49	5.83	6.97	6.44	CC1(c2cccc(NC(=O)c3ccc(Cl)s3)c2)COCC(N)=N1 (racemic) [Example 8, (RS)-5-chloro-thiophene-2-carboxylic acid [3-(5-amino-3-methyl-3,6-dihydro-2H-[1,4]oxazin-3-yl)-phenyl]-amide]
7.24	6.14	7.20	7.37	Cc1cc(C(=O)Nc2cccc(C3(C)COCC(N)=N3)c2)c(C)s1 (racemic) [Example 9, (RS)-2,5-dimethyl-thiophene-3-carboxylic acid [3-(5-amino-3-methyl-3,6-dihydro-2H-[1,4]oxazin-3-yl)-phenyl]-amide]
8.40	8.05	7.29	6.98	C[C@@]1(c2cc(NC(=O)c3ccc(OC(F)F)cn3)ccc2F)COCC(N)=N1 [Example 73, 5-difluoromethoxy-pyridine-2-carboxylic acid [3-((R)-5-amino-3-methyl-3,6-dihydro-2H-[1,4]oxazin-3-yl)-4-fluoro-phenyl]-amide hydrochloride]
6.12	5.40	5.52	6.21	C[C@@]1(c2cc(NC(=O)c3ncoc3-c3ccccc3)ccc2F)COCC(N)=N1 [Example 45, 5-phenyl-oxazole-4-carboxylic acid [3-((R)-5-amino-3-methyl-3,6-dihydro-2H-[1,4]oxazin-3-yl)-4-fluoro-phenyl]-amide]
